Measured values: the supplement of paper PMC10307832

Columns and labels:
Experiment in all cases: relative viability (nuclei count vs DMSO), 5 days (fraction); higher = more cells survive
VE-821 = compound: CS(=O)(=O)c1ccc(-c2cnc(N)c(C(=O)Nc3ccccc3)n2)cc1 [VE-821]
In short: (§1)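 Viability was defined as treated-well nuclei divided by vehicle-well nuclei, with the median taken over replicate plates. Cells from lung cancer lines sat overnight at 37 °C in 1536-well plates, received five √10-spaced library-drug doses by pinning on vehicle-anchored plates, and grew 5 days without medium change before one-step fixation, permeabilisation and Hoechst staining, 4× imaging and MetaXpress nuclear counts. Only plates with control CV under 25% and at least one doubling were kept.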

Vismodegib = compound: CS(=O)(=O)c1ccc(C(=O)Nc2ccc(Cl)c(-c3ccccn3)c2)c(Cl)c1 [Vismodegib]
In short: as §1

Ruxolitinib = compound: N#CC[C@H](C1CCCC1)n1cc(-c2ncnc3[nH]ccc23)cn1 [Ruxolitinib]
In short: as §1

Vismodegib + Crizotinib = compound: CS(=O)(=O)c1ccc(C(=O)Nc2ccc(Cl)c(-c3ccccn3)c2)c(Cl)c1 [Vismodegib] + C[C@@H](Oc1cc(-c2cnn(C3CCNCC3)c2)cnc1N)c1c(Cl)ccc(F)c1Cl [Crizotinib] (partner 1 µM)
In short: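 Nuclei were stained with Hoechst during a one-step fixation (final 0.05% Triton X-100, 1% formaldehyde, 1 ug/ml Hoechst) carried out 5 days after dosing, then counted on 4× images. The cells, lung cancer lines in 1536-well plates, had been dosed by pin tool the day after seeding with one drug alone or a fixed anchor-drug dose plus five library-drug doses (not always all listed) in √10 steps. Relative viability is the nuclei count in treated wells divided by that in vehicle wells, and each value is the median of duplicate plates.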

Row | Cell Line | relative viability (VE-821; 0.08 µM) | relative viability (VE-821; 0.253 µM) | relative viability (VE-821; 0.8 µM) | relative viability (VE-821; 2.53 µM) | relative viability (VE-821; 8 µM) | relative viability (Vismodegib; 0.08 µM) | relative viability (Vismodegib; 0.253 µM) | relative viability (Vismodegib; 0.8 µM) | relative viability (Vismodegib; 2.53 µM) | relative viability (Vismodegib; 8 µM) | relative viability (Ruxolitinib; 0.08 µM) | relative viability (Ruxolitinib; 0.253 µM) | relative viability (Ruxolitinib; 0.8 µM) | relative viability (Ruxolitinib; 2.53 µM) | relative viability (Ruxolitinib; 8 µM) | relative viability (Vismodegib + Crizotinib; first compound 0.08 µM) | relative viability (Vismodegib + Crizotinib; first compound 0.253 µM) | relative viability (Vismodegib + Crizotinib; first compound 0.8 µM) | relative viability (Vismodegib + Crizotinib; first compound 2.53 µM) | relative viability (Vismodegib + Crizotinib; first compound 8 µM)
1 | NCI-H2228 | 0.938 | 1.03 | 0.806 | 1.27 | 0.728 | 1.07 | 1.13 | 1.04 | 0.889 | 0.89 | 0.764 | 0.964 | 1.3 | 0.809 | 0.737 | 0.563 | 0.412 | 0.426 | 0.547 | 0.419
2 | NCI-H2347 | 1.1 | 0.968 | 1.01 | 1.22 | 1.14 | 0.908 | 0.995 | 0.949 | 0.968 | 1.04 | 0.949 | 0.984 | 1.11 | 1.01 | 0.942 | 0.691 | 0.713 | 0.64 | 0.582 | 0.656
3 | NCI-H2405 | 1.06 | 0.968 | 0.968 | 1.09 | 0.993 | 0.96 | 1.06 | 0.927 | 0.991 | 1.03 | 0.715 | 0.974 | 0.999 | 0.938 | 0.52 | 0.851 | 0.86 | 0.807 | 0.784 | 0.83
4 | NCI-H3122 | 1.02 | 1.01 | 0.982 | 1.01 | 0.933 | 0.962 | 1.01 | 0.904 | 0.973 | 0.92 | 0.986 | 1.03 | 1.01 | 0.868 | 0.915 | 0.307 | 0.286 | 0.255 | 0.295 | 0.268
5 | PC-3 [JPC-3] | 1.03 | 1.07 | 1.07 | 1.06 | 0.971 | 0.977 | 0.999 | 0.986 | 1.02 | 0.986 | 0.818 | 0.941 | 1.02 | 1.03 | 0.908 | 0.93 | 0.991 | 0.964 | 0.93 | 0.956
6 | PC-14 | 1.06 | 0.932 | 0.995 | 0.969 | 0.686 | 0.958 | 0.959 | 0.988 | 0.915 | 0.952 |  | 1.07 | 1.01 | 0.865 | 0.8 | 0.835 | 0.777 | 0.971 | 0.914 | 0.839
7 | RERF-LC-KJ | 0.986 | 0.916 | 0.878 | 0.923 | 0.786 | 1.03 | 0.967 | 1.03 | 0.973 | 1.04 | 0.969 | 0.933 | 1.06 | 1.01 | 0.965 | 0.821 | 0.813 | 0.81 | 0.848 | 0.82
8 | SK-LU-1 | 1.08 | 1.06 | 0.942 | 0.841 | 0.569 | 1 | 0.997 | 1.07 | 0.943 | 1.04 | 1.01 | 1.08 | 1.12 | 0.966 | 0.907 | 1.02 | 0.817 | 0.874 | 0.881 | 0.997
9 | SK-MES-1 | 1.03 | 0.955 | 0.905 | 0.933 | 0.809 | 0.964 | 0.997 | 1.01 | 0.986 | 1.04 | 1.04 | 0.967 | 1.02 | 0.846 | 0.725 | 0.94 | 0.936 | 0.923 | 0.969 | 1.07
10 | SW 1573 | 1.1 | 1.04 | 1.02 | 1.06 | 0.788 | 0.969 | 0.931 | 1.05 | 0.959 | 0.985 | 1.02 | 0.929 | 1.14 | 0.865 | 0.85 | 0.895 | 0.755 | 0.827 | 0.774 | 0.956
